Laboratory results from US20160271263A1 (Novo Nordisk A/S, priority 2010, published 2016).
pEC50: −log10 of the molar value. Numbered stars: 1 amine (or outer) side, 2 acyl side, 3 side chain; on linkers, the order of the positions; unused ones are H or OH. Side chains are listed from the residue outwards. Peptide text beside a SMILES is read from it. * marks the point of attachment. C18 diacid = O=C(O)CCCCCCCCCCCCCCCCC(=O)*; γGlu = O=C(O)[C@H](CCC(=O)[*:2])N[*:1]; AEEA = NCCOCCOCC(=O)O

Biological target: glucagon receptor (Homo sapiens, UniProt P47871)
Sequence (P47871 26-477): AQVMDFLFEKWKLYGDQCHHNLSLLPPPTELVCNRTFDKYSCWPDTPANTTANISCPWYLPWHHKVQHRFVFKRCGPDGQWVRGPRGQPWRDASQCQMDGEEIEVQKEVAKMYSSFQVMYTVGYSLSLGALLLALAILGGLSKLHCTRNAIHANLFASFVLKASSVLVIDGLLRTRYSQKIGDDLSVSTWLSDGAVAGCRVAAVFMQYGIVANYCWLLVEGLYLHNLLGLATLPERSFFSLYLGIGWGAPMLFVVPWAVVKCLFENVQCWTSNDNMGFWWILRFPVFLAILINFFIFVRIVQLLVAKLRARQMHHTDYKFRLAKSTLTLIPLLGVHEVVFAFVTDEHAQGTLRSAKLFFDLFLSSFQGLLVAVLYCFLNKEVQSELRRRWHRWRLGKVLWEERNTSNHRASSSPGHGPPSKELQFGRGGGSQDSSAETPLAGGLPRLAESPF
Assay: cell-based

Row | SMILES | pEC50
1 | CC(C)C[C@H](NC(=O)[C@H](Cc1ccc(O)cc1)NC(=O)[C@H](CCCCN)NC(=O)[C@H](CO)NC(=O)[C@H](Cc1ccc(O)cc1)NC(=O)[C@H](CC(=O)O)NC(=O)[C@H](CO)NC(=O)[C@@H](NC(=O)[C@H](Cc1ccccc1)NC(=O)[C@@H](NC(=O)CNC(=O)[C@H](CCC(N)=O)NC(=O)[C@H](CO)NC(=O)[C@@H](N)Cc1c[nH]cn1)[C@@H](C)O)[C@@H](C)O)C(=O)N[C@@H](CC(=O)O)C(=O)N[C@@H](CO)C(=O)N[C@@H](CCCNC(=N)N)C(=O)N[C@@H](CCCNC(=N)N)C(=O)N[C@@H](C)C(=O)N[C@@H](CCC(N)=O)C(=O)N[C@@H](CC(=O)O)C(=O)N[C@@H](Cc1ccccc1)C(=O)N[C@H](C(=O)N[C@@H](CCCCNC(=O)COCCOCCNC(=O)COCCOCCNC(=O)CC[C@H](NC(=O)CCCCCCCCCCCCCCCCC(=O)O)C(=O)O)C(=O)N[C@@H](Cc1c[nH]c2ccccc12)C(=O)N[C@@H](CC(C)C)C(=O)N[C@@H](CC(C)C)C(=O)N[C@H](C(=O)N[C@H](C(=O)O)[C@@H](C)O)[C@@H](C)O)C(C)C [Example 15] | 10.62
2 | CC(C)C[C@H](NC(=O)[C@H](Cc1ccc(O)cc1)NC(=O)[C@H](CCCCN)NC(=O)[C@H](CO)NC(=O)[C@H](Cc1ccc(O)cc1)NC(=O)[C@H](CC(=O)O)NC(=O)[C@H](CO)NC(=O)[C@@H](NC(=O)[C@H](Cc1ccccc1)NC(=O)[C@@H](NC(=O)CNC(=O)[C@H](CCC(N)=O)NC(=O)[C@H](CO)NC(=O)[C@@H](N)Cc1c[nH]cn1)[C@@H](C)O)[C@@H](C)O)C(=O)N[C@@H](CC(=O)O)C(=O)N[C@@H](CCCCNC(=O)COCCOCCNC(=O)COCCOCCNC(=O)CC[C@H](NC(=O)CCCCCCCCCCCCCCCCC(=O)O)C(=O)O)C(=O)N[C@@H](CCCNC(=N)N)C(=O)N[C@@H](CCCNC(=N)N)C(=O)N[C@@H](C)C(=O)N[C@@H](CCC(N)=O)C(=O)N[C@@H](CC(=O)O)C(=O)N[C@@H](Cc1ccccc1)C(=O)N[C@H](C(=O)N[C@@H](CCC(N)=O)C(=O)N[C@@H](Cc1c[nH]c2ccccc12)C(=O)N[C@@H](CC(C)C)C(=O)N[C@@H](CC(C)C)C(=O)N[C@@H](CC(N)=O)C(=O)N[C@H](C(=O)O)[C@@H](C)O)C(C)C [Example 17] (H-HSQGTFTSDYSKYLDK([AEEA-AEEA-γGlu-C18 diacid])RRAQDFVQWLLNT-OH; N-terminus and C-terminus assumed) | 11.52
3 | CC(C)C[C@H](NC(=O)[C@H](Cc1ccc(O)cc1)NC(=O)[C@H](CCCCN)NC(=O)[C@H](CO)NC(=O)[C@H](Cc1ccc(O)cc1)NC(=O)[C@H](CC(=O)O)NC(=O)[C@H](CO)NC(=O)[C@@H](NC(=O)[C@H](Cc1ccccc1)NC(=O)[C@@H](NC(=O)CNC(=O)[C@H](CCC(N)=O)NC(=O)[C@H](CO)NC(=O)[C@@H](N)Cc1c[nH]cn1)[C@@H](C)O)[C@@H](C)O)C(=O)N[C@@H](CC(=O)O)C(=O)N[C@@H](CO)C(=O)N[C@@H](CCCNC(=N)N)C(=O)N[C@@H](CCCCNC(=O)COCCOCCNC(=O)COCCOCCNC(=O)CC[C@H](NC(=O)CCCCCCCCCCCCCCCCC(=O)O)C(=O)O)C(=O)N[C@@H](C)C(=O)N[C@@H](CCC(N)=O)C(=O)N[C@@H](CC(=O)O)C(=O)N[C@@H](Cc1ccccc1)C(=O)N[C@H](C(=O)N[C@@H](CCC(N)=O)C(=O)N[C@@H](Cc1c[nH]c2ccccc12)C(=O)N[C@@H](CC(C)C)C(=O)N[C@@H](CC(C)C)C(=O)N[C@@H](CC(N)=O)C(=O)N[C@H](C(=O)O)[C@@H](C)O)C(C)C [Example 18] (H-HSQGTFTSDYSKYLDSRK([AEEA-AEEA-γGlu-C18 diacid])AQDFVQWLLNT-OH; N-terminus and C-terminus assumed) | 9.69
